Data taken from patent publication US20240010616A1, “SIPONIMOD SALTS AND COCRYSTALS” (Synthon B.V., priority 2020, published 2024).
“Also recorded” adds a separate entry of the source.

Columns and labels:
[1] = Water activity measured by DVS (weight difference between 0 and 90% relative humidity); format: physicochemical; details: 25° C., 0-90-0% relative humidity, step 10%; compared with prior art Siponimod Fumarate (1:0.5), Form A
Protocol: Water activity of the prior art form and solid forms of presented invention was measured: DVS machine ProUmid SPX-1μ Advance, 25° C., 0-90-0% relative humidity, step 10%, maximal time per step 10 hours. Equilibrium bandwidth 0.05%/60 minutes.
Water activity: a difference between the weights of the sample in 0 and 90% of relative humidity at a constant temperature. It corresponds to the amount of water taken by the tested compound when the humidity changes from 0 to 90% at a constant temperature. The higher water activity the more water can be taken by the compound and that might result in lower purity of the compound because hydrolysis impurities can be formed.

[2] = Comparison of crystals (SEM pictures): crystal size and proneness to charging; format: physicochemical; details: compared with prior art fumarate salt; for Proneness of crystals to charging: relates to processability into final forms (tablets); for Crystal size: crystals depicted in FIGS. 17 to 28
Protocol: • DCS patterns were obtained using the following conditions: 10° C./min->250° C. • Pictures of crystals were obtained by SEM Jeol JCM-6000. • Nuclear magnetic resonance spectroscopy (NMR) was performed using Avance III 400 MHz NMR spectrometer.
Prior art fumarate salt was prepared according to procedure described in WO2010/080409. In FIGS. 17 to 22 the crystals of prior art salt (FIG. 22) and crystals of salts of the presented invention (FIGS. 17 to 21) are depicted.
The crystals of solid Form 11 of cocrystal of Siponimod with adipic acid (2:1) are depicted in FIGS. 25 to 27. The crystal of Siponimod fumarate, Form A, are depicted in FIG. 28.

Proneness of crystals to charging [2] | Crystal size [2] | Structure (SMILES) | Water activity [1]
less prone to charging | much bigger than crystals of Form A | CCc1cc(/C(C)=N/OCc2ccc(C3CCCCC3)c(C(F)(F)F)c2)ccc1CN1CC(C(=O)O)C1.CCc1cc(/C(C)=N/OCc2ccc(C3CCCCC3)c(C(F)(F)F)c2)ccc1CN1CC(C(=O)O)C1.O=C(O)CCCCC(=O)O [Form 11] | lower water activity than Siponimod fumarate, Form A; also recorded: better comparing to prior art forms
prone to charging | small crystals | CCc1cc(/C(C)=N/OCc2ccc(C3CCCCC3)c(C(F)(F)F)c2)ccc1CN1CC(C(=O)O)C1.CCc1cc(/C(C)=N/OCc2ccc(C3CCCCC3)c(C(F)(F)F)c2)ccc1CN1CC(C(=O)O)C1.O=C(O)/C=C/C(=O)O [Prior art fumarate salt, reference compound] | 
